Data reported in patent US8834841B2, “Imaging agents” (priority 2005, dated 2014).

What was measured:
[1] = test system: DU145 Prostate Tumor Cells Implanted SC in SCID Mice; assay: tissue distribution, DU145 tumor-bearing SCID mice; format: in vivo
Protocol: (§1) For the in vitro amino acid uptake studies, all cells can be grown to monolayer confluency in T-175 culture flasks [Corning, Corning, N.Y.] (approx. 1×10^8 cells/flask) in Dulbecco's Modified Eagle's Medium (DMEM) [Sigma, St. Louis, Mo.] in a humidified incubator (37° C., 5% CO2/95% air). Media are supplemented with 10% fetal calf serum [Hyclone, Logan, Utah], and antibiotics (10,000 U/ml penicillin and 10 mg/ml streptomycin) (Sigma, St. Louis, Mo.). For tissue culture passage, monolayer cells are detached by gentle trypsinization, resuspended in complete media, and split 1:10 into new T-flasks. Cultures are passaged weekly, and fed fresh media every 2 to 3 days. To initiate tumor growth in SCID mice, 1×10^6 cells are injected s.c. bilaterally into the flanks (inguinal region) of the recipient animals using a 1 ml syringe with a 27 gauge needle. Ex vivo experiments can be performed with animals containing tumors weighing between 500 mg and 1 g, as estimated by caliper measurement (tumor weight=(π/6)*abc, where a, b and c are the tumor length, width and height, respectively). The compounds of the invention are further evaluated for their tumor specificity and selectivity in tumor-bearing animal models. One can evaluate and compare the transport, accumulation and tissue distribution of each compound in these in vivo animal studies. Tissue distribution of the compounds is measured in SCID mice (average weight, 20-25 g) bearing human tumors as follows. The candidate radioligands (20 uCi in 0.4 ml 0.9% NaCl) are injected into the tail vein of tumor-bearing mice. […] Tissues (blood, heart, liver, lungs, kidneys, bone, thyroid, muscle, brain and tumor) are excised, rinsed in saline, and blotted dry. The tissues are weighed, placed into 12×75 mm glass vials, the radioactivity determined with a gamma counter, and the percent dose/gram calculated. Total activities of blood and muscle are calculated by assuming that they account for 7% and 40% of the total body mass, respectively.

[2] = test system: U87 Glioma Tumor Cells Implanted SC in SCID Mice; assay: tissue distribution, U87 tumor-bearing SCID mice; format: in vivo
Protocol: as §1

NC1(C(=O)O)CCC1[18F] [Anti-R,S 2-[^18F]FACBC, (R,S) anti-1-amino-2-[^18F]fluorocyclobutyl-1-carboxylic acid] was tested, and the “% Dose/g blood” value ([1]; 15 Minutes) was 2.79 % Dose/g, the “% Dose/g bone” value ([1]; 15 Minutes) was 1.05 % Dose/g and the “% Dose/g brain” value ([1]; 15 Minutes) was 0.16 % Dose/g. For the same molecule, the “% Dose/g heart” value ([1]; 15 Minutes) was 2.07 % Dose/g, the “% Dose/g kidney” value ([1]; 15 Minutes) was 6.81 % Dose/g and the “% Dose/g liver” value ([1]; 15 Minutes) was 2.32 % Dose/g. The “% Dose/g lung” value ([1]; 15 Minutes) was 3.35 % Dose/g, the “% Dose/g muscle” value ([1]; 15 Minutes) was 0.83 % Dose/g and the “% Dose/g pancreas” value ([1]; 15 Minutes) was 29.02 % Dose/g. For the same molecule, the “% Dose/g spleen” value ([1]; 15 Minutes) was 4.37 % Dose/g, the “% Dose/g tumor” value ([1]; 15 Minutes) was 2.94 % Dose/g and the “% Dose/g blood” value ([1]; 30 Minutes) was 1.85 % Dose/g. The “% Dose/g bone” value ([1]; 30 Minutes) was 1.62 % Dose/g, the “% Dose/g brain” value ([1]; 30 Minutes) was 0.16 % Dose/g and the “% Dose/g heart” value ([1]; 30 Minutes) was 1.82 % Dose/g. The “% Dose/g kidney” value ([1]; 30 Minutes) was 4.47 % Dose/g, the “% Dose/g liver” value ([1]; 30 Minutes) was 2.08 % Dose/g and the “% Dose/g lung” value ([1]; 30 Minutes) was 2.31 % Dose/g. For the same molecule, the “% Dose/g muscle” value ([1]; 30 Minutes) was 0.99 % Dose/g, the “% Dose/g pancreas” value ([1]; 30 Minutes) was 29.29 % Dose/g and the “% Dose/g spleen” value ([1]; 30 Minutes) was 4.74 % Dose/g. The “% Dose/g tumor” value ([1]; 30 Minutes) was 3.54 % Dose/g, the “% Dose/g blood” value ([1]; 60 Minutes) was 0.80 % Dose/g and the “% Dose/g bone” value ([1]; 60 Minutes) was 2.22 % Dose/g. For the same molecule, the “% Dose/g brain” value ([1]; 60 Minutes) was 0.17 % Dose/g, the “% Dose/g heart” value ([1]; 60 Minutes) was 1.32 % Dose/g and the “% Dose/g kidney” value ([1]; 60 Minutes) was 1.82 % Dose/g. For the same molecule, the “% Dose/g liver” value ([1]; 60 Minutes) was 1.22 % Dose/g, the “% Dose/g lung” value ([1]; 60 Minutes) was 1.18 % Dose/g and the “% Dose/g muscle” value ([1]; 60 Minutes) was 1.15 % Dose/g. The “% Dose/g pancreas” value ([1]; 60 Minutes) was 15.00 % Dose/g, the “% Dose/g spleen” value ([1]; 60 Minutes) was 2.84 % Dose/g and the “% Dose/g tumor” value ([1]; 60 Minutes) was 2.56 % Dose/g. For the same molecule, the “% Dose/g blood” value ([1]; 120 Minutes) was 0.38 % Dose/g, the “% Dose/g bone” value ([1]; 120 Minutes) was 0.65 % Dose/g and the “% Dose/g brain” value ([1]; 120 Minutes) was 0.12 % Dose/g. For the same molecule, the “% Dose/g heart” value ([1]; 120 Minutes) was 0.82 % Dose/g, the “% Dose/g kidney” value ([1]; 120 Minutes) was 0.78 % Dose/g and the “% Dose/g liver” value ([1]; 120 Minutes) was 0.42 % Dose/g. For the same molecule, the “% Dose/g lung” value ([1]; 120 Minutes) was 0.45 % Dose/g, the “% Dose/g muscle” value ([1]; 120 Minutes) was 0.71 % Dose/g and the “% Dose/g pancreas” value ([1]; 120 Minutes) was 5.92 % Dose/g. For the same molecule, the “% Dose/g spleen” value ([1]; 120 Minutes) was 0.87 % Dose/g, the “% Dose/g tumor” value ([1]; 120 Minutes) was 1.84 % Dose/g and the “% Dose/g blood” value ([2]; 15 Minutes) was 3.50 % Dose/g. For the same molecule, the “% Dose/g bone” value ([2]; 15 Minutes) was 2.10 % Dose/g, the “% Dose/g brain” value ([2]; 15 Minutes) was 0.28 % Dose/g and the “% Dose/g heart” value ([2]; 15 Minutes) was 2.59 % Dose/g. For the same molecule, the “% Dose/g kidney” value ([2]; 15 Minutes) was 9.21 % Dose/g, the “% Dose/g liver” value ([2]; 15 Minutes) was 3.43 % Dose/g and the “% Dose/g lung” value ([2]; 15 Minutes) was 4.08 % Dose/g. For the same molecule, the “% Dose/g muscle” value ([2]; 15 Minutes) was 1.45 % Dose/g, the “% Dose/g pancreas” value ([2]; 15 Minutes) was 49.78 % Dose/g and the “% Dose/g spleen” value ([2]; 15 Minutes) was 6.63 % Dose/g. The “% Dose/g tumor” value ([2]; 15 Minutes) was 6.48 % Dose/g, the “% Dose/g blood” value ([2]; 30 Minutes) was 2.17 % Dose/g and the “% Dose/g bone” value ([2]; 30 Minutes) was 1.66 % Dose/g. The “% Dose/g brain” value ([2]; 30 Minutes) was 0.22 % Dose/g, the “% Dose/g heart” value ([2]; 30 Minutes) was 2.00 % Dose/g and the “% Dose/g kidney” value ([2]; 30 Minutes) was 5.08 % Dose/g. The “% Dose/g liver” value ([2]; 30 Minutes) was 2.58 % Dose/g, the “% Dose/g lung” value ([2]; 30 Minutes) was 2.82 % Dose/g and the “% Dose/g muscle” value ([2]; 30 Minutes) was 1.12 % Dose/g. For the same molecule, the “% Dose/g pancreas” value ([2]; 30 Minutes) was 41.30 % Dose/g, the “% Dose/g spleen” value ([2]; 30 Minutes) was 5.11 % Dose/g and the “% Dose/g tumor” value ([2]; 30 Minutes) was 5.44 % Dose/g. For the same molecule, the “% Dose/g blood” value ([2]; 60 Minutes) was 0.81 % Dose/g, the “% Dose/g bone” value ([2]; 60 Minutes) was 1.21 % Dose/g and the “% Dose/g brain” value ([2]; 60 Minutes) was 0.17 % Dose/g. The “% Dose/g heart” value ([2]; 60 Minutes) was 1.13 % Dose/g, the “% Dose/g kidney” value ([2]; 60 Minutes) was 2.00 % Dose/g and the “% Dose/g liver” value ([2]; 60 Minutes) was 1.22 % Dose/g. For the same molecule, the “% Dose/g lung” value ([2]; 60 Minutes) was 1.15 % Dose/g, the “% Dose/g muscle” value ([2]; 60 Minutes) was 1.10 % Dose/g and the “% Dose/g pancreas” value ([2]; 60 Minutes) was 17.78 % Dose/g. The “% Dose/g spleen” value ([2]; 60 Minutes) was 3.02 % Dose/g, the “% Dose/g tumor” value ([2]; 60 Minutes) was 3.61 % Dose/g and the “% Dose/g blood” value ([2]; 120 Minutes) was 0.46 % Dose/g. The “% Dose/g bone” value ([2]; 120 Minutes) was 1.20 % Dose/g, the “% Dose/g brain” value ([2]; 120 Minutes) was 0.16 % Dose/g and the “% Dose/g heart” value ([2]; 120 Minutes) was 0.89 % Dose/g. The “% Dose/g kidney” value ([2]; 120 Minutes) was 1.10 % Dose/g, the “% Dose/g liver” value ([2]; 120 Minutes) was 0.75 % Dose/g and the “% Dose/g lung” value ([2]; 120 Minutes) was 0.64 % Dose/g. For the same molecule, the “% Dose/g muscle” value ([2]; 120 Minutes) was 0.99 % Dose/g, the “% Dose/g pancreas” value ([2]; 120 Minutes) was 10.20 % Dose/g and the “% Dose/g spleen” value ([2]; 120 Minutes) was 1.48 % Dose/g. For the same molecule, the “% Dose/g tumor” value ([2]; 120 Minutes) was 2.73 % Dose/g.
